Holding throughout (format): biochemical
In assay [1] the target is T1, CRYL1 (Homo sapiens, UniProt Q9Y2S2).
T1 sequence (Q9Y2S2 2-319): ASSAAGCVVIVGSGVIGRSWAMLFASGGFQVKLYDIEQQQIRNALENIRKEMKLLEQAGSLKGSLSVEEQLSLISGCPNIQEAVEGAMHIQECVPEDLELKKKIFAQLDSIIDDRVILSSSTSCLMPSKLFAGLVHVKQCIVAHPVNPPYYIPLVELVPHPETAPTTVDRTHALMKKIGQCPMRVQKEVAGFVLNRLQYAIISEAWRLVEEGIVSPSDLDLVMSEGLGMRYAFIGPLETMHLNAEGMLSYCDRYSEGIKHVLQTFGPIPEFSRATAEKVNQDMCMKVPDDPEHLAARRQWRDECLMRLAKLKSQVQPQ
As to the kind of experiment: 1H NMR, NADH at […] nm and UHPLC-HRMS of product BKG. The conditions noted are these: 20 mM potassium phosphate pH 7.9, 25 °C, NAD+ (NMR); oxidation at C3.

In a further assay the target is DCXR (Homo sapiens, UniProt Q7Z4W1). The assay can be described thus: 1H NMR.
DCXR, sequence (Q7Z4W1 whole entry): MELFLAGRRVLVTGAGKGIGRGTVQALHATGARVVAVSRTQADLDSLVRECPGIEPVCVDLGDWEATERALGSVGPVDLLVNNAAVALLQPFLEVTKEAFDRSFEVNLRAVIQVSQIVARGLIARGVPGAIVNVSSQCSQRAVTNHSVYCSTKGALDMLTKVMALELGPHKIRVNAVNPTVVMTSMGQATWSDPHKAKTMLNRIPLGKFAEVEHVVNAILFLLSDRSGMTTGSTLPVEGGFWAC
For assay [2], the target named is T1, CRYL1. As to the kind of experiment: NADH formation at […] nm. As to conditions: 20 mM potassium phosphate, 37 °C, L-gulonate.

Data on 4 compounds can be found in publication PMC12337341 (Proceedings of the National Academy of Sciences of the …, 2025).

On to `O=C(O)[C@@H](O)[C@@H](O)[C@H](O)[C@@H](O)CO` [L-gulonate], for which the “1H NMR, NADH at 340 nm and UHPLC-HRMS of product BKG” value at CRYL1 [1] is on record as “the CRYL1 oxidation of L-gulonate at C3 is observed”.

In the case of `NC(=O)c1ccc[n+]([C@@H]2O[C@H](COP(=O)(O)OP(=O)(O)OC[C@H]3O[C@@H](n4cnc5c(N)ncnc54)[C@H](OP(=O)(O)O)[C@@H]3O)[C@@H](O)[C@H]2O)c1` [NADP+], at DCXR (reverse reaction with xylitol, same), the “1H NMR” value was “using DCXR in the reverse reaction with xylitol and NADP+ as substrates”.

Take `NC(=O)c1ccc[n+]([C@@H]2O[C@H](COP(=O)(O)OP(=O)(O)OC[C@H]3O[C@@H](n4cnc5c(N)ncnc54)[C@H](O)[C@@H]3O)[C@@H](O)[C@H]2O)c1` [NAD^+]: the “NADH formation at 340 nm” value at CRYL1 [2] is on record as “exploiting the equilibrium of the NAD-dependent reaction of CRYL1”.

In the case of `OC[C@@H](O)[C@H](O)[C@@H](O)CO` [xylitol], the “1H NMR” value at DCXR (reverse reaction with NADP+, 20 mM potassium phosphate pH 7.9, 25 °C) is “using DCXR in the reverse reaction with xylitol and NADP+ as substrates”.
